Data published in US12150940B2, “WASp-protecting small molecules, compositions, methods and uses thereof in the treatment of innate and acquired immune-related disorders or conditions” (BAR ILAN UNIVERSITY, priority 2016, dated 2024).

How the values were obtained:
Jurkat T cells = assay: Lymphocyte migration on ICAM-1/SDF-1α-coated cover glasses; type: cell-based, human; conditions: tracked over 20 min, mean ± SE
Experimental: Jurkat T cells were pretreated with DMSO or the indicated WASp-binding SMCs, and cell migration on ICAM-1/SDF-1α-coated cover glasses was tracked over a 20-min period, as described in Experimental procedures. Each line in FIG. 10A represents one cell. The tracks of five representative cells from each treatment are presented.
Error bars represent the SE from the mean. P values versus DMSO-treated control cells are presented and were calculated by two-tailed Student's t-test.
Approximately 1×10^5 lymphocytes were seeded over chambered coverslips (LabTek) pre-coated with 6 μg/ml ICAM-1 and 2 μg/ml SDF-1α. Cells were incubated at 37° C., 5% CO2 and DIC images were acquired with the Zeiss Observer Z1 inverted microscope every 5 s for 20 min under a 20× objective lens using Zen software. The random movement (Displacement and velocity) of the cells was automatically tracked and analyzed using TrackMate plugin of ImageJ software. An individual trace was assigned to each of the analyzed cells.
A common theme of active lymphocytes is their high migratory ability. This enables them to move within tissues and reach and engage target cells (Burkhardt et al, 2008). Because WASp plays a role in cellular motility, the ability of WASp-binding SMCs to effectively enhance the migration of lymphocytes was tested. The random movement of SMC-treated or control cells was automatically tracked and analyzed using live microscopy, as described in Experimental procedures.

PBMCs = assay: Lymphocyte activation in PBMCs (CD69 and activated LFA-1, flow cytometry); type: cell-based, human; conditions: PBMCs stimulated with PMA and Ionomycin, vs control
Experimental: Figures show 1×10^6 PBMC cells/ml stimulated with PMA and Ionomycin that were treated with DMSO or WASp-binding SMCs. After incubation, the cells were stained with PE-Cy5™-conjugated mouse anti-human CD69 and lymphocyte activation was measured by flow-cytometry as described in the Experimental procedures. Histograms of DMSO versus SMC #6 (FIG. 8A), SMC #30 (FIG. 8B), SMC #33 (FIG. 8C), and SMC #34 (FIG. 8D) are presented and represent three independent experiments.
After incubation, the cells were stained with anti-activated LFA-1 antibody (KIM127), followed by staining with Alexa488-Fluor goat anti-mouse IgG1 secondary antibody, and lymphocyte activation was measured by flow-cytometry as described in the Experimental procedures. Histogram of negative control versus SMC #6 is presented.
PBMCs or Jurkat cells (about 3×10^5 cells) were incubated for 4 h, at 37° C. with 50 ng/ml PMA and 250 ng/ml lonomycin, or 40 ng/ml PMA and 6 μM Ionomycin, respectively, or left untreated. After incubation, the cells were collected and stained with 1 μg/ml anti-active human LFA-1 antibody (purified from KIM127 hybridoma sup, ATCC Cat #: CRL-2838, Sigma) for 30 min in 37° C., followed by staining with Alexa488-Fluor goat anti-mouse IgG1 secondary antibody (Molecular Probes, Cat #: A-21121), 30 min on ice. Cells were then co-stained with PE-Cy5™-conjugated mouse anti-human CD69 (BD Pharmingen, Cat #: 555532) to measure lymphocyte activation.
Lymphocyte activation is a hallmark of a normal immune response. To test whether treatment with WASp-binding SMCs could upregulate lymphocyte activation, freshly-isolated PBMCs were incubated with SMCs or control (solvent only) and stimulated with PMA and lonomycin. The cells were then stained with two different antibodies, which recognize two lymphocyte activation markers, CD69 and an epitope exposed at the active conformation of the integrin LFA-1 (KIM127). Both were detected by flow-cytometry.

Compound | mean cell displacement (Jurkat T cells) | lymphocyte activation (CD69, activated LFA-1) (PBMCs)
CC(=O)N[C@H]1C[C@@H](c2ccc3c(c2)nnn3C)O[C@@H](c2ccc(Cl)cc2)C1 [SMC #6, N-[(2R,4R,6S)-2-(4-chlorophenyl)-6-(1-methylbenzotriazol-5-yl)oxan-4-yl]acetamide] | 29.52±2.96 | upregulation of lymphocyte activation
Cc1ccccc1N(CC(=O)NCc1ccccc1)C(=O)CCC(=O)Nc1nccs1 [SMC #33, N′-[2-(benzylamino)-2-oxoethyl]-N′-(2-methylphenyl)-N-(1,3-thiazol-2-yl)butanediamide] | 32.92±4.28 | upregulation of lymphocyte activation
CC1CCCC(C)N1C(=O)CSc1nnc(COc2cccc3cccnc23)o1 (stereo not drawn) [SMC #34, 1-(2,6-dimethylpiperidin-1-yl)-2-[[5-(quinolin-8-yloxymethyl)-1,3,4-oxadiazol-2-yl]sulfanyl]ethanone] | 48.91±6 | upregulation of lymphocyte activation
